Laboratory results as given in US6624154B1, “Compositions and methods for treatment of hyperproliferative diseases” (Bristol-Myers Squibb Company, priority 1999, dated 2003).

What was measured:
NB4 cells [1] = test: Cytokine expression in NB4 cells by RNAse protection assay; type: cell-based, human; details: for G-CSF expression: agent alone, 0, 24, 48 h
Protocol: (§1) Modulation of cytokine expression in NB4 cells was assessed by RNAse protection assays. […] For comparison the effect of vitamin D3 (“D3”) was studied also. […] The intact probes run on the same gel are shown on the left (L32 and GAPDH are the invariant internal controls used for calibration) and the positions of the protected fragments are indicated. […] Only the positions of the protected fragments are shown.
(§2) RPA analysis. Total RNA was extracted with the Trizol reagent (Gibco BRL). The ribonuclease protection assay was performed according to the supplier's instructions (Pharmingen, San Diego, Calif.). […] RNA (4 μg) and 6×10^5 cpm of labeled probes were used for hybridization. After RNAse treatments, the protected probes were resolved on a 5% urea-polyacrylamide-bis-acrylamide gel.

NB4 cells [2] = test: NB4 cell maturation (morphology, NBT reduction, CD11c integrin expression); type: cell-based, human; details: for Induction of NB4 cell maturation/differentiation, agent alone: ATRA 1 μM, other agonists 0.2 μM, 8CPT-cAMP 100 μM, 72 h (NBT, morphology), 48 h (CD11c); for NB4 cell maturation in presence of 8CPT-cAMP: co-treatment with PKA agonist 8CPT-cAMP 100 μM
Protocol: Morphological features of NB4 cells in response to treatments (after 72 h). […] Nitroblue tetrazolium enzymatic reduction in retinoid-treated NB4 cells (after 72 h; percent of positive cells).
Cells and cultures. […] Essentially, cultures were established with log phase growing cells at concentration (10^5 ocell per ml) allowing exponential growth of untreated control cultures over 3 days without medium replenishment. […] Cultures were light-protected.
Morphological and functional cell maturation analysis. Cell morphology was analyzed after May-Grünwald staining. […] Morphology analysis and NBT reaction were performed after 72 h of treatment. At least 300 cells were analyzed for each treated culture.
Flow cytometry analysis of CD11c cell surface integrin. […] Briefly, after incubation (48 h), cells were washed in PBS and labeled with an anti-human CD11c FITC mouse monoclonal antibody (Becton-Dickinson). Cells were then washed twice in PBS and fixed in 1% paraformaldehyde/PBS solution. Cells were analyzed using a COULTER flow-cytometer.

NB4-R2 cells = test: Cytokine expression in NB4-R2 cells by RNAse protection assay; type: cell-based, human
Protocol: as §1, §2

T47D = test: Lipid accumulation (Nile Red staining) in T47D breast cancer cells; type: cell-based, human; details: 7 days; for Increase of differentiation by addition of CPT-cAMP over RXR ligand alone: 1 μM RXR ligand plus 100 μM 8CPT-cAMP; for EC50: RXR compound alone, Nile Red
Protocol: Staining Solution: Stock Solution (1 mg Nile red and 1 ml acetone were mixed thoroughly and stored, chilled and protected from light).
Staining. For Fluorescence Microscope, a drop of dye-glycerol solution was added to a slide and covered with a glass coverslip. After 5 minutes, the slide was viewed by fluorescence microscope, Excitation 450-500 nm, Emission>528 nm. For Flow Cytofluorometry, the medium was aspirated off from cells and washed with PBS two times (serum in the medium drained the dye out of the cells). Then the cells were trypsinized and washed with PBS to get rid of trypsin. The cells were spun down and resuspended in 1 ml PBS (1-2×10^6/ml). The stock dye was added directly to the cells suspension in PBS with 1:100 dilution, and incubated at room temperature for a minimal of 5 minutes, and the samples were analyzed immediately. For Fluorescence Spectra, the medium was removed from 96-well plates and the cells were washed once with PBS. […] Diluted dye in PBS (1:100 from stock) was added to the cells, incubated for 5 minutes, and the plate was read at Excitation 488nm with a 2-nm slit width, emission at 540 nm with a 20-nm slit width.
Cells. Breast cancer cell line T47D was obtained from American Type Culture Collection, Manassas, Va.

RARα-RXRα heterodimer = biological target: T1, RARα-RXRα heterodimer (Homo sapiens, UniProt P10276+P19793); test: Transient transfection, RARα-RXRα heterodimer activity on DR5-tk-CAT reporter
T1 sequence (P10276 1-462): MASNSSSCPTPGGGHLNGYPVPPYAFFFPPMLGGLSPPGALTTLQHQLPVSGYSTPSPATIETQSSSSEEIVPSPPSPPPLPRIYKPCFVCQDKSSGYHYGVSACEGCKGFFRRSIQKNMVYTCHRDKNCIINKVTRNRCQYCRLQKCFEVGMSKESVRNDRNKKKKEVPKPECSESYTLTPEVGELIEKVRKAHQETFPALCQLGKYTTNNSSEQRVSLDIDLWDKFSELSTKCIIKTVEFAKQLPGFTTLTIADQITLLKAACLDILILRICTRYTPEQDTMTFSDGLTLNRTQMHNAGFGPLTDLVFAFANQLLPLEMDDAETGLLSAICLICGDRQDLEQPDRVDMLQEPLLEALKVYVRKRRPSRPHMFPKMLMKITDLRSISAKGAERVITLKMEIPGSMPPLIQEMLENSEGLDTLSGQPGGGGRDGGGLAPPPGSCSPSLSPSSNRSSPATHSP
T1 sequence (P19793 1-462): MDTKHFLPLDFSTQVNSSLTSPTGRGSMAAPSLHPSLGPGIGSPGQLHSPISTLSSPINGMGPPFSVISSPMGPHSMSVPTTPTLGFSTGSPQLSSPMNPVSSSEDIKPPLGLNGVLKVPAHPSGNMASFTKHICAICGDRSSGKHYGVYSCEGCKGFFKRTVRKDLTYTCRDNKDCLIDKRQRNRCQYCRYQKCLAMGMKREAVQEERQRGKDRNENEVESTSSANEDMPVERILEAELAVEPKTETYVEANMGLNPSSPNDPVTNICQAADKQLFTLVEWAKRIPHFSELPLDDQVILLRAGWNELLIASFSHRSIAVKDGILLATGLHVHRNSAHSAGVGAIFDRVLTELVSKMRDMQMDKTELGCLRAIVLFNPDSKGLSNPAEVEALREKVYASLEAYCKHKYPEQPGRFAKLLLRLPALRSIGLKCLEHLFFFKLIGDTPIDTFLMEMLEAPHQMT

Compound: CC1=C(/C=C/C(C)=C/C=C/C(C)=C/C(=O)O)C(C)(C)CCC1 [ATRA, all-trans retinoic acid]
- IL8 and MCPI expression (NB4 cells [1]; agent alone): induced
- M-CSF and IP10 expression (NB4 cells [1]; agent alone): induced
- G-CSF expression (NB4 cells [1]): incapable of stimulating G-CSF expression
- Induction of NB4 cell maturation/differentiation, agent alone (NB4 cells [2]): induce maturation
- IP 10, MCP1 or M-CSF expression in resistant cells (NB4-R2 cells): unable to induce

Compound: Nc1ncnc2c1nc(Sc1ccc(Cl)cc1)n2[C@@H]1O[C@@H]2COP(=O)([O-])O[C@H]2[C@H]1O.[Na+] [Compound 8CPT-cAMP, 8-(4-Chlorophenylthio)-adenosine-3′,5′-cyclic monophosphate, sodium salt]
- Lipid accumulation/differentiation, CPT-cAMP alone (T47D; 100 μM): No effect
- Induction of NB4 cell maturation/differentiation, agent alone (NB4 cells [2]): did not exhibit any differentiating activity

Compound: CC1(C)C(=O)C(C)(C)c2cc(C(=O)Nc3ccc(C(=O)O)cc3)ccc21 [Compound I, 4-[[(2,3-Dihydro-1,1,3,3-tetramethyl-2-oxo-1H-inden-5-yl)carbonyl]amino]benzoic acid]
- Induction of NB4 cell maturation/differentiation, agent alone (NB4 cells [2]): induce maturation
- Growth of NB4 cells (NB4 cells [2]; agent alone): growth inhibited

Compound: CC1(C)CC=C(c2cnc3ccccc3c2)c2cc(C(=O)Nc3ccc(C(=O)O)cc3)ccc21 [Compound II]
- Effect on Compound I-induced differentiation (NB4 cells [2]; NB4 cells, antagonist 2 μM): abrogated
- Effect on maturation induced by 9-cis RA (NB4 cells [2]; NB4 cells, antagonist 2 μM): decreased dramatically
- Inhibition of NB4 maturation induced by SR11237 plus 8CPT-cAMP (NB4 cells [2]; antagonist 2 μM): not inhibited

Compound: C=C(c1ccc(C(=O)O)cc1)c1cc2c(cc1C)C(C)(C)CC=C2C(C)C [Compound V, 4-[1-[5,6-Dihydro-3,5,5-trimethyl-8-(1-methylethyl)-2-naphthalenyl]ethenyl]benzoic acid]
- Induction of NB4 cell maturation/differentiation, agent alone (NB4 cells [2]): did not exert any differentiative effect
- NB4 cell maturation in presence of 8CPT-cAMP (NB4 cells [2]): induced maturation with a potency similar to 9-cis RA
- Activity with RAR-RXR heterodimers on a DR5-based reporter (RARα-RXRα heterodimer; agent alone): nearly inactive
- Effect on ATRA-induced transactivation of DR5-based reporter (RARα-RXRα heterodimer; with ATRA): synergized with

Compound: CC1(C)CC=C(c2ccc(-c3ccccc3)cc2)c2cc(/C=C/c3ccc(C(=O)O)cc3)ccc21 [Compound VI]
- Effect on Compound I-induced differentiation (NB4 cells [2]; NB4 cells, antagonist 2 μM): abrogated
- Inhibition of NB4 maturation induced by SR11237 plus 8CPT-cAMP (NB4 cells [2]; antagonist 2 μM): not inhibited

Compound: CN1c2ccc([N+](=O)[O-])cc2N=C(c2ccc(C(=O)O)cc2)c2cc3c(cc21)C(C)(C)CCC3(C)C [HX531]
- NB4 cell maturation in presence of 8CPT-cAMP (NB4 cells [2]): No crosstalk

Compound: CC1(C)CCC(C)(C)c2cc(C3(c4ccc(C(=O)O)cc4)OCCO3)ccc21 [SR11237]
- Increase of differentiation by addition of CPT-cAMP over RXR ligand alone (T47D): 20%
- EC50 (T47D): 110 nM
- Factor of synergy, G-CSF expression (NB4 cells [1]; SR11237 with 8CPT-cAMP): > 50 fold
- G-CSF expression (NB4 cells [1]): does not affect G-CSF expression
- SCF, IL8 and MCPI expression (NB4 cells [1]; agent on its own): induced
- Induction of NB4 cell maturation/differentiation, agent alone (NB4 cells [2]): completely inactive
- NB4 cell maturation in presence of 8CPT-cAMP (NB4 cells [2]): induced full maturation
- Transactivation of DR5-based reporter by coexpressed RAR and RXR in presence of the PKA agonist (RARα-RXRα heterodimer; with 8CPT-cAMP): did not observe any SR11237-induced transactivation

Compound: C=C(c1ccc(C(=O)O)cc1)c1cc2c(cc1C)C(C)(C)CCC2(C)C [bexarotene]
- Increase of differentiation by addition of CPT-cAMP over RXR ligand alone (T47D): 20%
- EC50 (T47D; Homo sapiens, T47D, 168 h): 62 nM

Compound: C=C1CC[C@H](O)C/C1=C/C=C1\CCC[C@]2(C)[C@@H]([C@H](C)CCCC(C)C)CC[C@@H]12 [vitamin D3]
- Induction of NB4 cell maturation/differentiation, agent alone (NB4 cells [2]): inactive on its own
- NB4 cell maturation in presence of 8CPT-cAMP (NB4 cells [2]): moderate granulocytic maturation
- Granulocytic maturation relative to the effect of SR11237 in presence of the PKA agonist (NB4 cells [2]; uM concentration, with 8CPT-cAMP): less than 20%
